“And” between values parts separate entries of the source, which are not always exact repeats. Identical values can stand only once.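 1) Cells in 96-well plates. 2) Compound, 48 h, 5 concentrations. 3) Linear interpolation between surrounding doses. 4) Unreached endpoint = highest concentration. GI50: concentration for 50% inhibition of growth. The concentration for full growth arrest is given as TGI.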
How the values were obtained:
Experiment in all cases: growth of human tumour cells (NCI), 48 h
CAKI-1 renal = system: CAKI-1 renal
CCRF-CEM leukemia = system: CCRF-CEM leukemia
HCT-15 colon = system: HCT-15 colon
HL-60(TB) leukemia = system: HL-60(TB) leukemia
NCI-H23 lung = system: NCI-H23 lung
OVCAR-4 ovarian = system: OVCAR-4 ovarian
RPMI-8226 leukemia = system: RPMI-8226 leukemia
SF-268 CNS = system: SF-268 CNS
T-47D breast = system: T-47D breast
UACC-62 melanoma = system: UACC-62 melanoma

Compound | GI50 (CAKI-1 renal) | TGI (CAKI-1 renal) [µM] | GI50 (CCRF-CEM leukemia) [µM] | TGI (CCRF-CEM leukemia) | GI50 (HCT-15 colon) | TGI (HCT-15 colon) | GI50 (HL-60(TB) leukemia) | TGI (HL-60(TB) leukemia) [µM] | GI50 (NCI-H23 lung) | TGI (NCI-H23 lung) [µM] | GI50 (OVCAR-4 ovarian) | TGI (OVCAR-4 ovarian) [µM] | GI50 (RPMI-8226 leukemia) [µM] | TGI (RPMI-8226 leukemia) [µM] | GI50 (SF-268 CNS) [µM] | TGI (SF-268 CNS) [µM] | GI50 (T-47D breast) [µM] | TGI (T-47D breast) [µM] | GI50 (UACC-62 melanoma) | TGI (UACC-62 melanoma) [µM]
COc1ccccc1Nc1nc(-c2cc3cccc(C(F)(F)F)c3oc2=O)cs1 | 0.142 µM | > 100 | 0.291 | > 100 µM | 0.151 µM | > 100 µM | 0.186 µM | 0.521 | 0.345 µM | > 45.9 | 0.185 µM | > 63.3 | 0.24 | > 71.4 | 0.214 | > 100 | 0.0535 | > 100 | 0.154 µM | > 81.6
O=Nc1c(-c2cccc([N+](=O)[O-])c2)nc2ncccn12 | 10.4 µM | 22.6 | 1.86 | 4.44 µM | 3.77 µM | 17.8 µM | 2.32 µM | 6.15 | 15.1 µM | 34.9 | 12 µM | 55.2 | 1.47 | 6.56 | 18.3 | 66.8 | 6.29 | 39.1 | 14.4 µM | 29.3
O=C1c2cc3c(cc2-c2c1c1ccc([N+](=O)[O-])cc1c(=O)n2CCCCl)OCO3 | 0.0268 µM | 76.6 | 0.279 | > 100 µM | 2.09 µM | > 100 µM | 0.328 µM | > 28.8 | 0.285 µM | – | 7.34 µM | > 100 | 0.275 | > 26.6 | 0.102 | > 100 | – | > 100 | 0.176 µM | 2.5
Cn1c(=O)c(F)c(Nc2ccc(I)cc2F)c2c(=O)n(C[C@@H](O)CO)cnc21 | 0.649 µM and 0.139 µM | > 90 | – | 52 µM and > 7.18 µM | 1.9 µM and 0.873 µM | 43.2 µM and > 8.26 µM | < 0.01 µM and 0.00141 µM | 23.1 | 0.0183 µM and 0.0231 µM | > 46.4 | 6.33 µM and 1.21 µM | > 100 | 9.12 | > 91.8 | 10.4 | > 82.5 | 18.2 | > 96.5 | < 0.01 µM and 0.00264 µM | –
CSC(=S)N/N=C(\C)c1ccccn1 | 0.267 µM | 7.25 | < 0.01 | 1.68 µM | 0.16 µM | 24.5 µM | < 0.0453 µM | 0.18 | 0.119 µM | 26.5 | < 0.0169 µM | 10.6 | 0.0232 | 16.1 | 0.349 | 14.5 | < 0.01 | 15.2 | 0.181 µM | 0.955
C[n+]1c2ccccc2c(NC2CCNCC2)c2[nH]c3ccccc3c21 | – | 7.09 | 0.48 | 3.13 µM | 10.3 µM | > 46 µM | 1.8 µM | > 22.6 | 0.0944 µM | 0.88 | 0.253 µM | 2.57 | 0.164 | 1.17 | 0.0378 | 0.773 | 0.217 | 2.04 | 0.215 µM | 1.08
CN(C)CCn1cc(-c2ccc3c(Nc4ccc(CC(=O)Nc5cccc(F)c5)cc4)ncnc3c2)cn1 | 1.24 µM | 3.4 | 0.0178 | > 10 µM | 4.44 µM | > 10 µM | 1.95 µM | 4.85 | 1.87 µM | 4.98 | 1.53 µM | 3.09 | 2.32 | 5.93 | 1.43 | 3.39 | 1.41 | 4.54 | 6.4 µM | > 10
O=C1c2cccc3cccc(c23)C(=O)N1CCCCOc1ccc(-c2nc3ccc(N4CCOCC4)cc3[nH]2)cc1 | 11.6 µM | 27 | 2.91 | > 28.2 µM | 2.14 µM | 8.01 µM | 2.29 µM | 4.55 | 6.7 µM | 23.5 | 1.8 µM | 4.08 | 1.27 | 4.39 | 7.35 | > 69.6 | 3.08 | 15.9 | 1.72 µM | 3.2
N#C/C(=C/N1CCN(C(=O)c2ccco2)C1=S)C(N)=O | 11.8 µM | 34.4 | > 100 | > 100 µM | 3.82 µM | > 100 µM | 22 µM | 57.3 | 21.4 µM | 44 | 18.5 µM | 73.8 | 12.4 | > 100 | 11.7 | 36.4 | 9.32 | > 100 | 14 µM | 38.3
CCCCOC(=O)N[C@H]1CCc2cc(OC)c(OC)c(OC)c2-c2ccc(SC)c(=O)cc21 | – | 25.6 | – | 35.8 µM | – | > 15.8 µM | – | 0.398 | – | 8.09 | – | > 96.5 | – | 17.1 | – | 25.1 | – | 58.7 | – | 24.8
CCOc1ccc2c(c1)/C(=C\C=C\C1CC(C)C3CC(OCC)CCC3N1CC)CC(C)N2CC (stereo unspecified) | 1.65 µM | 4.16 | 0.472 | 2.71 µM | 1.16 µM | 2.77 µM | 1.82 µM | 5.71 | 0.567 µM | 2.38 | 0.459 µM | 2 | 0.269 | 1.65 | 0.882 | 2.41 | 0.334 | 2.12 | 1.26 µM | 2.77
O=c1c2ccccc2nc(-c2ccc(Cl)cc2)n1O | – | > 100 | – | 59.8 µM | – | > 100 µM | – | 65 | – | > 100 | – | > 100 | – | > 100 | – | > 100 | – | > 100 | – | > 100
Cn1c(=O)c(Cc2ccc(F)cc2F)cc2cnc(NC3CCOCC3)nc21 | > 19.4 µM | > 25 | > 25 | > 25 µM | > 25 µM | > 25 µM | > 25 µM | > 25 | > 25 µM | > 25 | > 21.7 µM | > 25 | > 23.6 | > 25 | > 25 | > 25 | 9.47 | > 25 | > 23.8 µM | > 25
O=C(Nc1ccccc1Cl)c1ccc(NC2=C(Cl)C(=O)N(Cc3ccccc3)C2=O)cc1 | 43.5 µM | > 100 | > 100 | > 100 µM | 15 µM | 29.2 µM | 22.5 µM | 50.6 | 19.2 µM | 35.7 | 78.9 µM | > 100 | > 100 | > 100 | 23.3 | 55.1 | 62.4 | > 100 | 19.5 µM | 41.1
Oc1ccc2ccccc2c1/C=N\Nc1ccccn1 | 0.212 µM | 0.678 | 0.328 | – | 0.511 µM | > 100 µM | 0.267 µM | 0.795 | 0.539 µM | > 100 | 1.24 µM | > 100 | 0.654 | > 100 | 0.436 | > 100 | 0.97 | > 100 | 0.692 µM | 13.1
COc1ccc(Cc2ccccc2C(=O)O)c2ccccc12 | – | > 100 | – | 95.3 µM | – | 92.4 µM | – | 46 | – | 67.3 | – | > 100 | – | > 100 | – | 87.5 | – | > 100 | – | 29.9
Cn1cccc1-c1cc(-c2ccc(Br)cc2)nc(N)c1C#N | > 100 µM | > 100 | > 100 | > 100 µM | > 100 µM | > 100 µM | 0.413 µM | > 100 | > 100 µM | > 100 | 77.2 µM | > 100 | 78.7 | > 100 | > 100 | > 100 | > 100 | > 100 | 33.3 µM | > 100
CC(C)(C)NNc1c([N+](=O)[O-])cnn(-c2ccccc2)c1=O | – | 21.1 | – | 3.4 µM | – | 10.1 µM | – | 5.24 | – | 11.1 | – | 6.61 | – | 23.8 | – | 31 | – | 4.36 | – | 9.39
O=C1NC(=NCc2ccccn2)S/C1=C\c1ccc2ncccc2c1 | 6.62 µM | > 18.9 | 10.7 | > 25 µM | 6.86 µM | > 25 µM | 6.56 µM | > 25 | 12.1 µM | > 25 | 9.74 µM | 24.7 | > 12.6 | > 25 | 8.5 | > 25 | 11.2 | > 25 | > 17.5 µM | > 25
COc1cc(/C=C/C(=O)c2ccc(Nc3nc(Nc4ccc(F)cc4)nc(Nc4ccc(F)cc4)n3)cc2)cc(OC)c1OC | > 100 µM | > 100 | 2.35 | > 100 µM | 5.53 µM | > 100 µM | 1 µM | > 100 | 4.86 µM | > 100 | > 100 µM | > 100 | 1.81 | 35.2 | 41.2 | > 100 | 5.76 | > 100 | 10.7 µM | 41.4
Cc1ccc(/C=C(\C#N)n2nnc3cc(F)c(F)cc32)cc1 | 1.77 µM | 19.1 | 1.81 | > 100 µM | 0.651 µM | 15.3 µM | 3.16 µM | > 100 | 5.21 µM | 28 | 2.58 µM | 15.4 | 2.85 | 8.71 | 3.63 | 20.9 | 1.19 | 5.39 | 3.71 µM | 17.5
CC(C)[C@]12O[C@H]1[C@@H]1O[C@]13[C@]1(O[C@H]1C[C@H]1c4c(C(=O)c5ccccc5)oc(OC(=O)c5ccccc5)c4CC[C@@]13C)[C@@H]2O | 0.0183 µM | 50.2 | 0.0429 | – | 0.0291 µM | > 100 µM | 0.023 µM | > 100 | < 0.0105 µM | 0.111 | 0.0313 µM | > 88.4 | < 0.0148 | 1.06 | 0.0338 | 1.6 | 0.0281 | 0.916 | 0.0134 µM | 0.0333
NCCOc1ccccn1 | – | > 100 | – | > 100 µM | – | > 100 µM | – | > 100 | – | > 100 | – | > 100 | – | > 100 | – | > 100 | – | > 100 | – | > 100
CO/N=C1/c2cc(OC)ccc2-c2c(NOC)nc3ccccc3c21 | > 100 µM | > 100 | 70.1 | > 100 µM | 32.6 µM | > 100 µM | 28.3 µM | > 100 | 28.6 µM | 97.9 | 27.3 µM | > 100 | 40.6 | > 100 | 41.6 | > 100 | 41.2 | > 100 | 27.5 µM | > 100
Nc1nc(Cl)nc2c1ncn2C1O[C@H](CO)[C@@H](O)[C@@H]1F (stereo partly specified) | 0.326 µM | – | 0.0281 | > 100 µM | 4.73 µM | > 100 µM | 0.0305 µM | 0.14 | – | – | > 100 µM | > 100 | > 31.5 | > 100 | 0.229 | > 54 | 6.94 | > 100 | 0.362 µM | > 100
C=C1C(=O)O[C@H]2[C@H]1CC/C(Cn1cc(CCC)nn1)=C\CC[C@@]1(C)O[C@@H]21 | 3.91 µM | 16.2 | 3 | 9.71 µM | 2.9 µM | 12.3 µM | 3.53 µM | 15.3 | 13.6 µM | 32 | 9.46 µM | 22.7 | 5.52 | 27.1 | 13.7 | 28.4 | 4.11 | 21.3 | – | –
O=Cc1ccc(C(F)(F)F)cc1.[C-]#[O+].[C-]#[O+].[C-]#[O+].[Cr] | 24.6 µM | > 100 | 9.87 | 65.1 µM | 26.1 µM | 82.7 µM | 16.1 µM | 92.6 | 37.1 µM | > 100 | 27.1 µM | > 100 | – | – | 21 | > 100 | 14.4 | 62.4 | 13.3 µM | 37

Reference: PubChem BioAssay (NCI)
